In experiment [1] the test system is sterlet and catfish mother fishes. The experiment in a line: spawning (roe deposition / ovulation) of sterlet and catfish mother fishes. The experiment is classed as in vivo. The note with it: control group under the same conditions.
The next experiment deals with blue and silver foxes. Nature of the experiment: extra-seasonal rutting of blue and silver foxes. In kind it is in vivo. To be noted: single dose of 10 μg.
The test system of the next experiment is cattle. The experiment in a line: pregnancy ratio of cattle, dosing simultaneously with insemination. The experiment is classed as in vivo. To be noted: same dose (100 μg/dose).
The subject of another experiment is female turkeys. Nature of the experiment: brooding time of female turkeys. The experiment is classed as in vivo, turkey.

Consider two substances from patent publication US4600705A, “Gonadoliberin derivatives containing a β-aspartyl group, a process for the preparation thereof and pharmaceutical preparations containing them” (Richter Gedeon Veyteszeti Gyar R.T., priority 1983, dated 1986).

With D-Phe^6, desGly^10 -LH-RH-ethylamide, the “ovulation (in words)” value in experiment [1] is “no ovulation occurred”.
With “native LH-RH: gonadoliberine, gonadotrop releasing hormone; native hormone used as comparator (QHWSYGLRPG; Gonadoliberin-1; UniProt P01148 24-33, looked up)”, in the experiment on blue and silver foxes, the extra-seasonal rutting result was “inefficacious”. Also, in the experiment on cattle, the “effect on the pregnancy ratio (in words)” value is listed as “not efficacious”. The brooding time entry with female turkeys is recorded as “ineffective”.
